Reference: publication PMC5904360, “Soluble N-Ethylmaleimide-Sensitive Factor Attachment Protein Receptor-Derived Peptides for Regulation of Mast Cell Degranulation” (Frontiers in Immunology, 2018)

Columns and labels:
[1] = biological target: T1, SN23-Syn4-Vp8 SNARE complex (Rattus norvegicus, UniProt O70377+Q08850+Q9WUF4); experiment: SNARE-driven membrane fusion (total lipid mixing) assay with proteoliposomes; assay type: biochemical; settings: for inhibition of membrane fusion (lipid mixing): inhibitor applied to T-vesicles, T:V 9:1, 37°C, NBD dequenching, Vp2S/Vp8S at 10 µM, three independent experiments (Figure 3B-D); for inhibition of membrane fusion, peptide added before preincubation: peptide added before preincubation of T- and V-liposomes at 4°C overnight (Figure 4A)
T1 construct: Syn4 (amino acids 1–298); SNAP-23 (amino acids 1–210); VAMP8 (amino acids 1–100); GST (N, cleaved yes); made in house; host or cells: Escherichia coli Rosetta(DE3)pLysS
T1 sequence (Q08850 1-298): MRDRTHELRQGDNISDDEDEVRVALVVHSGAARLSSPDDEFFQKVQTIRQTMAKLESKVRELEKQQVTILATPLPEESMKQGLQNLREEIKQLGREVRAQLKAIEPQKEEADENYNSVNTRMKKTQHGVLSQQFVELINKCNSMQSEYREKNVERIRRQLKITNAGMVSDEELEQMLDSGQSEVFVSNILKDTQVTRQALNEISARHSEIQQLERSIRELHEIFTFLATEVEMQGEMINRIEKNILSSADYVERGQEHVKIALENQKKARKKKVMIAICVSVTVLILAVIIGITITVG
T1 sequence (O70377 1-210): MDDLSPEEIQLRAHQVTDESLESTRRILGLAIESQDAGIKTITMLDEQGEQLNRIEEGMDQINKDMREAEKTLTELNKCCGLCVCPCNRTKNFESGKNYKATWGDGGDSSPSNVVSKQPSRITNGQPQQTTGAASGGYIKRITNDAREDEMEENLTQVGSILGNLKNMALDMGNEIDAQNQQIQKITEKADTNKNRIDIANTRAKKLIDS
T1 sequence (Q9WUF4 1-100): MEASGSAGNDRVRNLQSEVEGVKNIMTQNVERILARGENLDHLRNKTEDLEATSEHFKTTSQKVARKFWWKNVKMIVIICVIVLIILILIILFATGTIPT
Source text: Total RNA was obtained from RBL-2H3 cells using TRIzol® Reagent (#15596026, Invitrogen, Carlsbad, CA, USA) and served as a template for cDNA synthesis with M-MLV reverse transcriptase (M1705, Promega, Madison, WI, USA) according to the manufacturer’s protocol. The cDNAs amplified for rat Syn4, SNAP-23, VAMP2, VAMP4, VAMP7, and VAMP8 using each primer pair ([4]), were cloned into the pGEX-4T 1 vector. The mast cell SNARE proteins [Syn4 (amino acids 1–298), SNAP-23 (amino acids 1–210), full-length VAMP2 (VpF, amino acids 1–116), VAMP4 (amino acids 1–141), and VAMP8 (amino acids 1–100)] were expressed in Escherichia coli Rosetta(DE3)pLysS (#70956, Novagen, Darmstadt, Germany) and purified as glutathione-S-transferase-tagged fusion proteins as reported previously ([8]).
To prepare the unilamellar liposomes, a 50-mM lipid mixture of palmitoyl-2-oleoylphosphatidylcholine (POPC) (#850457, Avanti Polar Lipids, Alabaster, AL, USA):1,2-dioleoyl-phosphatidylserine (DOPS) (#840035, Avanti Polar Lipids) at 65:35 mol% was dried in a glass tube under a gentle stream of nitrogen gas and then exposed to a vacuum overnight. The resultant lipid film was resuspended in dialysis buffer (25 mM HEPES and 100 mM KCl, pH 7.4) by vortexing, followed by an extrusion step with polycarbonate membrane filters having a pore size of 100 nm (#610005, Avanti Polar Lipids). To prepare proteoliposomes, binary T-SNAREs, which were pre-formed by mixing Syn4 and SNAP-23 at room temperature for 60 min, were incubated with 50 mM unilamellar liposomes for 15 min at the same temperature, resulting in a 50:1 lipid/protein molar ratio ([9]).
For the preparation of V-SNARE proteoliposomes, a 10-mM premixed lipid solution [POPC:DOPS:N-(7-nitro-2-1,3-benzoxadiazol-4-yl (NBD))-phosphatidylserine (#810198, Avanti Polar Lipids):[…] (#810150, Avanti Polar Lipids) = 62:35:1.5:1.5 (molar ratio)] was used for the preparation of fluorescent liposomes in the same manner as above. The prepared liposomes were then mixed with VAMP2 for 15 min at room temperature. The liposome/protein mixture was diluted twice to bring the concentration of n-octyl glucoside (O8001, Sigma-Aldrich) below the critical micelle concentration. After overnight dialysis against 1L dialysis buffer at 4°C to remove the detergent, SM-2 bio-beads (#1523920, Bio-Rad Laboratories, Hercules, CA, USA) were added to the sample to remove any remaining n-octyl glucoside. The solution was then centrifuged at 10,000 × g to remove the protein/lipid aggregates, and the final lipid concentrations of both the T- and V-liposomes were adjusted to 1 mM with a lipid-to-protein ratio of 50:1.
A total lipid mixing assay using the T- and V-liposomes was performed as described previously with minor modifications ([8]). Briefly, peptide inhibitors were applied to the T-vesicles at the indicated concentrations and then the T-vesicles were mixed with the V-vesicles in a 384-well plate for the initiation of fusion, with a T- to V-vesicle volume ratio of 9:1. The fusion was monitored using the dequenching of NBD fluorescence signal (excitation 465 nm/emission 530 nm). After at least 80 min of fusion, the maximum NBD signal was obtained by adding 0.1% Triton X-100™. All the lipid-mixing experiments were performed at 37°C.

[2] = biological target: T1, SN23-Syn4-Vp8 SNARE complex; experiment: as above; assay type: biochemical; settings: peptide added after preincubation of T- and V-liposomes at 4°C overnight (partially zippered SNAREs) (Figure 4A)
[3] = system: RBL-2H3 mast cells; experiment: Degranulation assay, histamine release (enzyme immunoassay); assay type: cell-based, rat; settings: for inhibition of histamine release: PTD-conjugated peptide without SLO (LY294002 as positive control), DNP-IgE sensitized, DNP-BSA stimulation, no A23187 pretreatment, three independent experiments (Figure 2C); for inhibition of histamine release after A23187 pretreatment: cells pretreated with A23187, sensitized with DNP-IgE, then PTD-conjugated peptide (Figure 4B)

Sequence | inhibition of membrane fusion (lipid mixing) [1] | inhibition of membrane fusion, peptide added before preincubation [1] | inhibition of membrane fusion, peptide added after preincubation [2] | inhibition of histamine release [3] | inhibition of histamine release after A23187 pretreatment [3]
EDEMEENLTQVGSILGN [SC23N, 17-mer peptide, N-terminal region of SNAP-23 SNARE motif SC23] | inhibited membrane fusion by both the SN23-Syn4-Vp2 and SN23-Syn4-Vp8 complexes | inhibited the membrane fusion induced by both SN23-Syn4-Vp2 and SN23-Syn4-Vp8 | inhibitory activities significantly diminished |  | 
LQSEVEGVKNIMTQNVE [Vp8N, 17-mer peptide, N-terminal region of VAMP8 SNARE motif] | specific to the SN23-Syn4-Vp8 complex | inhibited the membrane fusion driven only by their cognate SNARE complexes | inhibitory activities significantly diminished | almost equally inhibited the release of both β-hexosaminidase and histamine | inhibited both histamine and β-hexosaminidase release
SARHSEIQQLERTIREL [Syn4N, 17-mer peptide, N-terminal region of syntaxin 4 SNARE motif] | inhibited membrane fusion by both the SN23-Syn4-Vp2 and SN23-Syn4-Vp8 complexes | inhibited the membrane fusion induced by both SN23-Syn4-Vp2 and SN23-Syn4-Vp8 | inhibitory activities significantly diminished | almost equally inhibited the release of both β-hexosaminidase and histamine | inhibited both histamine and β-hexosaminidase release
